Test results from the supplement of paper PMC10307832.

Experiments:
Assay in all cases: relative viability (nuclei count vs DMSO), 5 days (fraction); higher = more cells survive
[1] = compound: C1=CC=C2C(=C1)C=CC(=C2SSC3=C(C=CC4=CC=CC=C43)O)O [IPA-3] + COc1cccc2cc(-c3nc([C@H]4CC[C@H](C(=O)O)CC4)n4ncnc(N)c34)[nH]c12 [OSI-027] (partner 0.5 µM)
Summary of the method: (§1)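 A single step with final 0.05% Triton X-100, 1% formaldehyde and 1 ug/ml Hoechst fixed the cells and stained nuclei 5 days after treatment. Lung cancer cell lines in 1536-well plates had been treated by pin tool the day after seeding with one drug alone or a fixed anchor-drug dose plus five library-drug doses (not always all listed) in √10 steps, and nuclei were counted on 4× images. Relative viability is the ratio of nuclei in treated wells to nuclei in vehicle wells, taken as the median of duplicate plates.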

[2] = compound: C1=CC=C2C(=C1)C=CC(=C2SSC3=C(C=CC4=CC=CC=C43)O)O [IPA-3] + O=C(CCCCCCC(=O)Nc1ccccc1)NO [Vorinostat] (partner 1 µM)
Summary of the method: as §1

[3] = compound: Cc1ccc(-n2nc(C(C)(C)C)cc2NC(=O)Nc2ccc(OCCN3CCOCC3)c3ccccc23)cc1 [Doramapimod] + COc1cccc2cc(-c3nc([C@H]4CC[C@H](C(=O)O)CC4)n4ncnc(N)c34)[nH]c12 [OSI-027] (partner 0.5 µM)
Summary of the method: as §1

[4] = compound: Cn1c(Nc2ccc(C(F)(F)F)cc2)nc2cc(Oc3ccnc(-c4ncc(C(F)(F)F)[nH]4)c3)ccc21 [RAF265] + Cc1nc(NC(=O)N2CCC[C@H]2C(N)=O)sc1-c1ccnc(C(C)(C)C(F)(F)F)c1 [Alpelisib] (partner 2 µM)
Summary of the method: as §1

Cell Line	relative viability ([1]; first compound 0.2 µM)	relative viability ([1]; first compound 0.6325 µM)	relative viability ([1]; first compound 2 µM)	relative viability ([1]; first compound 6.325 µM)	relative viability ([1]; first compound 20 µM)	relative viability ([2]; first compound 0.2 µM)	relative viability ([2]; first compound 0.6325 µM)	relative viability ([2]; first compound 2 µM)	relative viability ([2]; first compound 6.325 µM)	relative viability ([2]; first compound 20 µM)	relative viability ([3]; first compound 0.02 µM)	relative viability ([3]; first compound 0.06325 µM)	relative viability ([3]; first compound 0.2 µM)	relative viability ([3]; first compound 0.6325 µM)	relative viability ([3]; first compound 2 µM)	relative viability ([4]; first compound 0.01 µM)	relative viability ([4]; first compound 0.03162 µM)	relative viability ([4]; first compound 0.1 µM)	relative viability ([4]; first compound 0.3162 µM)	relative viability ([4]; first compound 1 µM)
NCI-H1993	0.555	0.556	0.539	0.556	0.504	1.15	0.639	0.758	0.725	0.918	0.573	0.566	0.59	0.495	0.522	0.648	0.648	0.77	0.761	0.715
NCI-H23	0.591	0.544	0.577	0.571	0.533	0.735	0.616	0.595	0.611	0.501	0.646	0.601	0.663	0.491	0.628	0.738	0.601	0.643	0.416	0.222
NCI-H1437	1.1	0.942	0.68	0.989	1.17	0.863	0.644	0.691	0.783	0.826	0.953	0.883	0.852	0.938	0.866	0.956	1.02	0.973	0.944	0.778
SK-MES-1	0.722	0.581	0.635	0.521	0.423	1.27	1.03	1.09	0.925	1.04	0.643	0.571	0.565	0.573	0.521	0.942	0.807	0.337	0.242	0.183
NCI-H2405	0.651	0.644	0.669	0.691	0.666	1.17	1.11	1.11	0.922	1.04	0.654	0.596	0.606	0.74	0.598	0.808	0.858	0.863	0.712	0.297
NCI-H2023	0.507	0.352	0.415	0.54	0.421	0.866	0.681	0.789	0.699	0.839	0.362	0.362	0.369	0.479	0.301	0.554	0.625	0.721	0.639	0.508
NCI-H838	0.468	0.437	0.478	0.429	0.453	0.776	0.697	0.75	0.706	0.794	0.383	0.364	0.376	0.369	0.326	1.03	0.974	1.01	1.06	0.692
NCI-H661	0.894	0.726	0.716	0.356	0.673	0.796	0.764	0.865	0.732	0.778	0.71	0.732	0.791	0.799	0.629	0.865	0.586	0.563	0.47	0.241
NCI-H1734	0.619	0.632	0.507	0.612	0.56	0.922	0.761	0.799	0.726	0.638	0.55	0.508	0.537	0.589	0.448	0.668	0.529	0.589	0.532	0.333
NCI-H596	0.761	0.681	0.757	0.668	0.865	0.722	0.772	0.578	0.694	0.656	0.653	0.658	0.665	0.783	0.57	0.561	0.444	0.495	0.513	0.359
NCI-H1944	0.454	0.394	0.396	0.479	0.444	0.674	0.492	0.479	0.574	0.527	0.365	0.451	0.352	0.492	0.286	0.896	0.841	0.646	0.496	0.442
LK-2	0.183	0.214	0.194	0.27	0.165	0.321	0.321	0.429	0.553	0.506	0.204	0.152	0.18	0.158	0.186	1.07	1.08	1.18	0.655	0.778
HCC-15	0.765	0.685	0.636	0.688	0.718	0.929	0.937	0.894	0.804	0.975	0.688	0.645	0.68	–	0.539	0.949	0.776	0.844	0.544	0.439
NCI-H727	0.851	0.703	0.546	0.613	0.634	1.25	1.01	1.27	1.07	1.2	0.497	0.556	0.688	0.472	0.57	0.662	0.644	0.594	0.366	0.308
HOP-62	0.985	0.808	0.937	0.783	0.616	0.72	0.556	0.597	0.698	0.717	0.828	0.81	0.906	0.923	0.741	0.966	–	0.948	1.07	0.58
NCI-H3122	1.13	0.951	0.948	1.11	0.896	1.06	1.2	1.03	1.46	1.14	0.956	0.853	0.938	1.04	1.01	0.909	0.868	0.783	0.559	0.417

Cell Line	relative viability ([1]; first compound 0.2 µM)	relative viability ([1]; first compound 0.6325 µM)	relative viability ([1]; first compound 2 µM)	relative viability ([1]; first compound 6.325 µM)	relative viability ([1]; first compound 20 µM)	relative viability ([2]; first compound 0.2 µM)	relative viability ([2]; first compound 0.6325 µM)	relative viability ([2]; first compound 2 µM)	relative viability ([2]; first compound 6.325 µM)	relative viability ([2]; first compound 20 µM)	relative viability ([3]; first compound 0.02 µM)	relative viability ([3]; first compound 0.06325 µM)	relative viability ([3]; first compound 0.2 µM)	relative viability ([3]; first compound 0.6325 µM)	relative viability ([3]; first compound 2 µM)	relative viability ([4]; first compound 0.01 µM)	relative viability ([4]; first compound 0.03162 µM)	relative viability ([4]; first compound 0.1 µM)	relative viability ([4]; first compound 0.3162 µM)	relative viability ([4]; first compound 1 µM)
NCI-H1395	0.641	0.705	0.547	0.621	0.692	0.679	0.754	0.588	0.635	0.747	0.617	0.728	0.702	0.826	0.523	1.07	0.993	1.04	0.835	0.792
NCI-H647	1.04	0.576	0.629	0.676	0.301	0.628	0.376	0.581	0.544	0.151	0.702	0.546	0.706	0.711	0.639	0.923	0.933	0.594	0.477	0.585
NCI-H650	0.561	0.534	0.521	0.521	0.566	0.465	0.518	0.361	0.486	0.507	0.544	0.626	0.61	0.608	0.52	1.35	1.17	1.21	0.852	0.398
EKVX	0.649	0.68	0.738	0.728	0.786	0.801	0.693	0.83	0.793	0.763	0.718	0.684	0.679	0.671	0.698	0.863	0.842	0.944	0.516	0.624
NCI-H460	1.2	0.615	0.658	0.671	0.78	0.94	0.665	0.729	0.626	0.504	0.612	0.721	0.658	0.753	0.585	0.543	0.356	0.481	–	0.173
LCLC-97TM1	0.403	0.521	0.436	0.498	0.502	1.11	0.875	0.724	0.575	1.12	0.533	0.412	0.517	0.437	0.432	0.274	0.194	0.2	0.144	0.125
COR-L23	1.05	0.771	0.795	0.696	0.552	0.561	0.471	0.416	0.232	0.307	0.688	0.892	0.84	0.806	0.621	0.785	0.696	0.669	0.389	0.304
NCI-H1355	0.417	0.42	0.407	0.398	0.378	0.69	0.655	0.595	0.617	0.657	0.412	0.409	0.381	0.361	0.341	0.829	0.791	0.794	0.427	0.229
NCI-H1666	0.976	0.839	0.828	0.743	0.87	1.07	1.06	1.07	1.04	1.03	0.974	0.852	0.846	0.787	0.772	1.1	1.11	0.942	0.815	0.547
EPLC-272H	0.293	0.281	0.236	0.264	0.335	0.397	0.468	0.366	0.482	0.546	0.32	0.297	0.306	0.316	0.295	0.847	0.792	0.801	0.478	0.367
NCI-H1651	0.71	0.73	0.695	0.804	0.706	0.608	0.612	0.61	0.645	0.592	0.751	0.701	0.727	0.729	0.656	0.95	0.919	1.03	0.734	0.774
HCC-44	0.516	0.704	0.489	0.482	0.484	1.03	1.03	1.04	1.07	0.986	0.563	0.607	0.625	0.463	0.433	0.743	0.699	0.882	0.75	0.695
SW 1573	0.867	0.385	0.528	0.634	0.183	1.05	0.655	0.865	0.958	0.536	0.585	0.514	0.485	0.586	0.352	1	0.638	0.645	0.574	0.343
PC-3 [JPC-3]	0.8	0.774	0.76	0.655	0.735	0.821	0.816	0.896	0.73	0.767	0.845	0.735	0.742	0.779	0.749	1	0.993	1.08	0.331	0.644
LOU-NH91	0.709	0.732	0.811	0.73	0.776	0.946	0.804	0.902	0.87	1.08	0.776	0.752	0.738	0.769	0.559	0.747	0.667	0.739	0.557	0.495
PC-14	1.54	0.778	0.749	0.766	1.17	0.952	0.759	0.616	0.68	0.747	0.933	0.671	0.872	1.01	0.635	0.964	0.907	0.854	0.35	0.579
